Patent publication US12409126B2, “Ginsenoside-containing composition, daily-use chemical and use thereof” (InCipirit Tech (Guangzhou) Co., Ltd., priority 2023, dated 2025)
Structures can show the parent of a compound that is named as a salt.

Tested on: human epidermal keratinocytes
Experiment: Epidermal keratinocyte proliferation in dermal papilla cell and epidermal keratinocyte double-layer culture system
Type: cell-based
Conditions: 0.2 μg/ml, 2 μg/ml, 20 μg/ml, 200 μg/ml
Procedure: 500 μl of human epidermal keratinocytes (30,000 cells/ml) were added to each well of MULTIWELL 24well, followed by the addition of 1.0 μm of cell culture inserts for culture for 1 day. 300 μl of dermal papilla cells (20,000 cells/ml) had been added in the 1.0 μm of cell culture inserts. each 1 μl/well of the Radix et Rhizoma Ginseng extracts 1-7, the positive control (minoxidil sulfate) and the blank control (DMSO) was then added for continued culture for 3 days. After removal of the 1.0 μm of cell culture inserts, 50 μl/well of Cell Counting Kit-8 (Dojindo Laboratories) was added for continued culture for 2 hours, and the cell number was determined using a microplate reader (450 nm, Mix0).

SMILES: Nc1cc(N2CCCCC2)nc(N)[n+]1OS(=O)(=O)[O-] [Minoxidil sulfate, minoxidil sulfate]
- epidermal keratinocyte proliferation in double-layer culture system: no effect in promoting keratinocyte proliferation
